Our source for the EC50 and IC50 values is patent US10052331B2, “3-(3H-imidazo[4,5-C]pyridin-2-yl)-1H-pyrazolo[3,4-C]pyridine and therapeutic uses thereof” (Samumed, LLC, priority 2014, dated 2018).

The test system of assay [1] is primary human fibroblasts derived from IPF patients (LL29 cells). Description: Inhibition of fibrotic process: αSMA staining in TGF-β1-treated primary human fibroblasts from IPF patients (LL29 cells). The assay is classed as cell-based. Conditions: Fibroblast, 96 h, LL29 cells treated with TGF-β1 (20 ng/mL), 4 days, 11-point dose-response from 10 μM to 1.87 nM, read-out: Inhibition of fibrosis EC50. The source says:
The above synthesized compounds were screened using primary human fibroblasts (derived from IPF patients) treated with TGF-β1 to determine their ability to inhibit the fibrotic process.
Primary human fibroblasts derived from IPF patients (LL29 cells) [^1Xiaoqiu Liu, et. al., “Fibrotic Lung Fibroblasts Show Blunted Inhibition by cAMP Due to Deficient cAMP Response Element-Binding Protein Phosphorylation”, Journal of Pharmacology and Experimental Therapeutics (2005), 315(2), 678-687; ^2Watts, K. L., et. al., “RhoA signaling modulates cyclin D1 expression in human lung fibroblasts; implications for idiopathic pulmonary fibrosis”, Respiratory Research (2006), 7(1), 88] were obtained from American Type Culture Collection (ATCC) and expanded in F12 medium supplemented with 15% Fetal Bovine Serum and Penicillin/Streptomycin.
Each compound was dissolved in DMSO as a 10 mM stock and used to prepare compound source plates. Serial dilution (1:2, 11-point dose-response curves from 10 μM to 1.87 nM) and compound transfer was performed using the ECHO 550 (Labcyte, Sunnyvale, Calif.) into 384-well clear bottom assay plates (Greiner Bio-One) with appropriate DMSO backfill for a final DMSO concentration of 0.1%. LL29 cells were plated at 1,500 cells/well in 80 μl/well F12 medium supplemented with 1% Fetal Bovine Serum. One hour after addition of the cells, TGF-β1 (Peprotech; 20 ng/mL) was added to the plates to induce fibrosis (ref. 1 and 2 above). Wells treated with TGF-β1 and containing DMSO were used as controls. Cells were incubated at 37° C. and 5% CO2 for 4 days. Following incubation for 4 days, SYTOX green nucleic acid stain (Life Technologies [Thermo Fisher Scientific]) was added to the wells at a final concentration of 1 uM and incubated at room temperature for 30 min. Cells were then fixed using 4% formaldehyde (Electron Microscopy Sciences), washed 3 times with PBS followed by blocking and permeabilization using 3% Bovine Serum Albumin (BSA; Sigma) and 0.3% Triton X-100 (Sigma) in PBS. Cells were then stained with antibody specific to α-smooth muscle actin (αSMA; Abcam) (ref. 1 and 2 above) in 3% Bovine Serum Albumin (BSA; Sigma) and 0.3% Triton X-100 (Sigma) in PBS, and incubated overnight at 4° C. Cells were then washed 3 times with PBS, followed by incubation with Alexa Flor-647 conjugated secondary antibody (Life Technologies [Thermo Fisher Scientific]) and DAPI at room temperature for 1 hour. Cells were then washed 3 times with PBS and plates were sealed for imaging. αSMA staining was imaged by excitation at 630 nm and emission at 665 nm and quantified using the Compartmental Analysis program on the CellInsight CX5 (Thermo Scientific). Dead or apoptotic cells were excluded from analysis based on positive SYTOX green staining. % of total cells positive for αSMA were counted in each well and normalized to the average of 11 wells treated with TGF-β1 on the same plate using Dotmatics' Studies Software. The normalized averages (fold change over untreated) of 3 replicate wells for each compound concentration were used to create dose-responses curves and EC50 values were calculated using non-linear regression curve fit in the Dotmatics' Studies Software. The EC50 values are reported.

For assay [2], the system named is Wnt activity (Wnt-responsive Sp5 promoter-luciferase reporter in SW480 cells). Description: Wnt activity screening assay: Sp5-Luc reporter gene in SW480 colon carcinoma cells. The assay is classed as cell-based. The conditions noted are these: Homo sapiens. In a few lines: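 IC50 values come from variable-slope four-parameter fits of luciferase signal normalized to DMSO wells. Stable Sp5-Luc reporter SW480 colon carcinoma cells were exposed to compounds in a 3-fold dilution series (source plates from 10 mM stock) for forty-two hours at 37 °C.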
Background: Reporter assays use an easily measured gene product as a stand-in for the process of interest.

In general, EC50 refers to the concentration needed to bring the measured effect to its halfway point. By IC50 is commonly meant the point on the concentration scale where inhibition reaches its midpoint. Lower therefore signals higher potency. As to `CN1CCN(c2cncc3[nH]c(-c4n[nH]c5cnc(-c6cncnc6)cc45)nc23)CC1` [Compound 234, 3-(7-(4-methylpiperazin-1-yl)-3H-imidazo[4,5-c]pyridin-2-yl)-5-(pyrimidin-5-yl)-1H-pyrazolo[3,4-c]pyridine], the EC50 in assay [1] came to 966 nM. The same compound returned an IC50 in assay [2] of 379 nM.

In the case of `CCCCC(=O)Nc1cncc(-c2cc3c(-c4nc5c(-c6ccc(F)cc6)cncc5[nH]4)n[nH]c3cn2)c1` [Compound 44, N-(5-(3-(7-(4-Fluorophenyl)-3H-imidazo[4,5-c]pyridin-2-yl)-1H-pyrazolo[3,4-c]pyridin-5-yl)pyridin-3-yl)pentanamide], the EC50 in assay [1] was 75 nM. Besides, half-maximal inhibition in assay [2] (IC50) was put at 164 nM.

Take `Cc1ccncc1-c1cc2c(-c3nc4c(-c5ccsc5)cncc4[nH]3)n[nH]c2cn1` [Compound 239, 5-(4-Methylpyridin-3-yl)-3-(7-(thiophen-3-yl)-3H-imidazo[4,5-c]pyridin-2-yl)-1H-pyrazolo[3,4-c]pyridine]: in assay [1], the EC50 is no more than 9 nM. Besides, the IC50 in assay [2] is 40 nM.

With `CCCCC(=O)Nc1cncc(-c2cc3c(-c4nc5c(-c6ccc(C)s6)cncc5[nH]4)n[nH]c3cn2)c1` [Compound 356, N-(5-(3-(7-(5-Methylthiophen-2-yl)-3H-imidazo[4,5-c]pyridin-2-yl)-1H-pyrazolo[3,4-c]pyridin-5-yl)pyridin-3-yl)pentanamide], the EC50 in assay [1] stood at 110 nM. Moreover, inhibition in assay [2] was half-maximal at 17.6 nM (IC50).

With `CC(C)CC(=O)Nc1cncc(-c2cc3c(-c4nc5c(-c6cc(O)cc(F)c6)cncc5[nH]4)n[nH]c3cn2)c1` [Compound 1280, N-(5-(3-(7-(3-Fluoro-5-hydroxyphenyl)-3H-imidazo[4,5-c]pyridin-2-yl)-1H-pyrazolo[3,4-c]pyridin-5-yl)pyridin-3-yl)-3-methylbutanamide], the EC50 in assay [1] was no more than 9 nM. In assay [2], this compound came in with an IC50 greater than 10000 nM.

In the case of `CCNCc1cncc(-c2cc3c(-c4nc5c(-c6ccc(C)s6)cncc5[nH]4)n[nH]c3cn2)c1` [Compound 344, N-((5-(3-(7-(5-Methylthiophen-2-yl)-3H-imidazo[4,5-c]pyridin-2-yl)-1H-pyrazolo[3,4-c]pyridin-5-yl)pyridin-3-yl)methyl)ethanamine], in assay [1], the EC50 was 60 nM. Besides, the IC50 in assay [2] turned out to be 25.4 nM.

Turning to `CC(C)Nc1cncc(-c2cc3c(-c4nc5c(-c6cc(F)cc(NCCN(C)C)c6)cncc5[nH]4)n[nH]c3cn2)c1` [Compound 428, N^1-(3-Fluoro-5-(2-(5-(5-(isopropylamino)pyridin-3-yl)-1H-pyrazolo[3,4-c]pyridin-3-yl)-3H-imidazo[4,5-c]pyridin-7-yl)phenyl)-N2,N2-dimethylethane-1,2-diamine], the EC50 in assay [1] was no less than 9990 nM. For the same compound, in assay [2], the IC50 worked out at 175 nM.

With `Cc1ccc(-c2cncc3[nH]c(-c4n[nH]c5cnc(-c6cncc(CN7CCCCC7)c6)cc45)nc23)s1` [Compound 353, 3-(7-(5-Methylthiophen-2-yl)-3H-imidazo[4,5-c]pyridin-2-yl)-5-(5-(piperidin-1-ylmethyl)pyridin-3-yl)-1H-pyrazolo[3,4-c]pyridine], the EC50 in assay [1] came to 251 nM. Besides, the IC50 in assay [2] is 1040 nM.

For the compound `CN(C)CC(=O)Nc1cncc(-c2cc3c(-c4nc5c(-c6cccc(F)c6)cncc5[nH]4)n[nH]c3cn2)c1` [Compound 1367, 2-(Dimethylamino)-N-(5-(3-(7-(3-fluorophenyl)-3H-imidazo[4,5-c]pyridin-2-yl)-1H-pyrazolo[3,4-c]pyridin-5-yl)pyridin-3-yl)acetamide], the EC50 in assay [1] was determined as 144 nM. Further, the IC50 in assay [2] worked out at 512 nM.

On to `Oc1cncc(-c2cc3c(-c4nc5c(-c6cccc(F)c6)cncc5[nH]4)n[nH]c3cn2)c1` [Compound 897, 5-(3-(7-(3-Fluorophenyl)-3H-imidazo[4,5-c]pyridin-2-yl)-1H-pyrazolo[3,4-c]pyridin-5-yl)pyridin-3-ol], for which, in assay [1], the EC50 came out at 32 nM. In assay [2], this compound showed an IC50 of 59 nM.

`CS(=O)(=O)NCc1cc(F)cc(-c2cncc3[nH]c(-c4n[nH]c5cnc(-c6cncc(CNCc7ccccc7)c6)cc45)nc23)c1` [Compound 413, N-(3-(2-(5-(5-((Benzylamino)methyl)pyridin-3-yl)-1H-pyrazolo[3,4-c]pyridin-3-yl)-3H-imidazo[4,5-c]pyridin-7-yl)-5-fluorobenzyl)methanesulfonamide]: the EC50 in assay [1] is no less than 9990 nM. For the same compound, it took 58 nM to reach half-maximal inhibition in assay [2] (IC50).

In the case of `Cc1ncc(-c2cc3c(-c4nc5c(-c6cccc(F)c6)cncc5[nH]4)n[nH]c3cn2)n1C` [Compound 889, 5-(1,2-Dimethyl-1H-imidazol-5-yl)-3-(7-(3-fluorophenyl)-3H-imidazo[4,5-c]pyridin-2-yl)-1H-pyrazolo[3,4-c]pyridine], the EC50 in assay [1] was determined as 46 nM. The IC50 in assay [2] was found to be 552 nM.

`CN(C)c1cncc(-c2cc3c(-c4nc5c(-c6cccc(F)c6)cncc5[nH]4)n[nH]c3cn2)c1` [Compound 7, 5-(3-(7-(3-Fluorophenyl)-3H-imidazo[4,5-c]pyridin-2-yl)-1H-pyrazolo[3,4-c]pyridin-5-yl)-N,N-dimethylpyridin-3-amine]: in assay [1], the EC50 was no more than 9 nM. For the same compound, the IC50 in assay [2] turned out to be 71.8 nM.

With `CCCC(=O)Nc1cncc(-c2cc3c(-c4nc5c(-c6ccncc6)cncc5[nH]4)n[nH]c3cn2)c1` [Compound 121, N-(5-(3-(7-(Pyridin-4-yl)-3H-imidazo[4,5-c]pyridin-2-yl)-1H-pyrazolo[3,4-c]pyridin-5-yl)pyridin-3-yl)butyramide], the EC50 in assay [1] is no less than 9990 nM. In addition, in assay [2], the IC50 was greater than 10000 nM.

`CN(C)CCNc1cc(F)cc(-c2cncc3[nH]c(-c4n[nH]c5cnc(-c6cncc(CNCC7CCCC7)c6)cc45)nc23)c1` [Compound 440, N^1-(3-(2-(5-(5-(((Cyclopentylmethyl)amino)methyl)pyridin-3-yl)-1H-pyrazolo[3,4-c]pyridin-3-yl)-3H-imidazo[4,5-c]pyridin-7-yl)-5-fluorophenyl)-N2,N2-dimethylethane-1,2-diamine]: in assay [1], the EC50 is no more than 9 nM. In addition, in assay [2], the midpoint of inhibition, the IC50, lay at 1210 nM.

On to `CN(C)c1cncc(-c2cc3c(-c4nc5c(-c6cccs6)cncc5[nH]4)n[nH]c3cn2)c1` [Compound 293, N,N-Dimethyl-5-(3-(7-(thiophen-2-yl)-3H-imidazo[4,5-c]pyridin-2-yl)-1H-pyrazolo[3,4-c]pyridin-5-yl)pyridin-3-amine], for which, in assay [1], the EC50 is no more than 9 nM. The IC50 in assay [2] is 319 nM.

In the case of `Fc1ccc(-c2cncc3[nH]c(-c4n[nH]c5cnc(-c6cncc(CN7CCCC7)c6)cc45)nc23)s1` [Compound 326, 3-(7-(5-Fluorothiophen-2-yl)-3H-imidazo[4,5-c]pyridin-2-yl)-5-(5-(pyrrolidin-1-ylmethyl)pyridin-3-yl)-1H-pyrazolo[3,4-c]pyridine], the EC50 in assay [1] is no more than 9 nM. Besides, the IC50 in assay [2] was found to be 772 nM.

For the compound `Fc1cccc(-c2cncc3[nH]c(-c4n[nH]c5cnc(-c6ccccn6)cc45)nc23)c1` [Compound 901, 3-(7-(3-Fluorophenyl)-3H-imidazo[4,5-c]pyridin-2-yl)-5-(pyridin-2-yl)-1H-pyrazolo[3,4-c]pyridine], the half-maximal effective concentration (EC50) in assay [1] worked out at 584 nM. Besides, the IC50 in assay [2] came to 805 nM.

In the case of `CCCCC(=O)Nc1cncc(-c2cc3c(-c4nc5c(-c6ccccn6)cncc5[nH]4)n[nH]c3cn2)c1` [Compound 148, N-(5-(3-(7-(Pyridin-2-yl)-3H-imidazo[4,5-c]pyridin-2-yl)-1H-pyrazolo[3,4-c]pyridin-5-yl)pyridin-3-yl)pentanamide], in assay [1], the EC50 is no less than 9990 nM. The same compound yielded an IC50 in assay [2] greater than 10000 nM.

Take `Cc1ccncc1-c1cc2c(-c3nc4c(-c5ccncc5)cncc4[nH]3)n[nH]c2cn1` [Compound 109, 5-(4-Methylpyridin-3-yl)-3-(7-(pyridin-4-yl)-3H-imidazo[4,5-c]pyridin-2-yl)-1H-pyrazolo[3,4-c]pyridine]: in assay [1], the EC50 is no less than 9990 nM. The compound further gave an IC50 in assay [2] greater than 10000 nM.
